Data published in patent US20050182025A1, “Amidinylphenyl compounds and their use as fungicides” (priority 2002, published 2005).

Assays:
Format in all cases: in vivo
[1] = tested on: Erysiphe graminis f. sp. tritici; experiment: Test A: preventive spray on wheat seedlings, wheat powdery mildew, disease rating; conditions: wheat seedlings sprayed to run-off, inoculated the following day with Erysiphe graminis f. sp. tritici, rated after 7 days at 20° C.; test concentration not given
Description: General protocol for preparing test suspensions: Test compounds were first dissolved in acetone in an amount equal to 3% of the final volume and then suspended at the desired concentration (in ppm) in acetone and purified water (50/50 mix) containing 250 ppm of the surfactant Trem® 014 (polyhydric alcohol esters). The resulting test suspensions were then used in the following tests. Spraying a 200 ppm test suspension to the point of run-off on the test plants was the equivalent of a rate of 500 g/ha. The test suspension was sprayed to the point of run-off on wheat seedlings. The following day the seedlings were inoculated with a spore dust of Erysiphe graminis f. sp. tritici, (the causal agent of wheat powdery mildew) and incubated in a growth chamber at 20° C. for 7 days, after which disease ratings were made. Results for Tests A-C are given in Table A. In the table, a rating of 100 indicates 100% disease control and a rating of 0 indicates no disease control (relative to the controls). A dash (-) indicates no test results.

Puccinia recondita = experiment: Test B: preventive spray on wheat seedlings, wheat leaf rust, disease rating; conditions: wheat seedlings sprayed to run-off, inoculated the following day with Puccinia recondita, 24 h saturated atmosphere then 6 days at 20° C.; test concentration not given
Description: (§1) General protocol for preparing test suspensions: Test compounds were first dissolved in acetone in an amount equal to 3% of the final volume and then suspended at the desired concentration (in ppm) in acetone and purified water (50/50 mix) containing 250 ppm of the surfactant Trem® 014 (polyhydric alcohol esters). The resulting test suspensions were then used in the following tests. Spraying a 200 ppm test suspension to the point of run-off on the test plants was the equivalent of a rate of 500 g/ha. The test suspension was sprayed to the point of run-off on wheat seedlings. The following day the seedlings were inoculated with a spore suspension of Puccinia recondita (the causal agent of wheat leaf rust) and incubated in a saturated atmosphere at 20° C. for 24 h, and then moved to a growth chamber at 20° C. for 6 days, after which disease ratings were made. Results for Tests A-C are given in Table A. In the table, a rating of 100 indicates 100% disease control and a rating of 0 indicates no disease control (relative to the controls). A dash (-) indicates no test results.

Septoria nodorum = experiment: Test C: preventive spray on wheat seedlings, Septoria glume blotch, disease rating; conditions: wheat seedlings sprayed to run-off, inoculated the following day with Septoria nodorum, 48 h saturated atmosphere then 9 days at 20° C.; test concentration not given
Description: as §1, with “Septoria nodorum” for “Puccinia recondita”, “Septoria glume blotch)” for “wheat leaf rust)”, “48” for “24”, “9” for “6”

C=CCN(C)C=Nc1cc(F)c(OCCC[Si](C)(C)C)cc1C [compound 64]
Test A disease control rating (100 = 100% disease control, 0 = no disease control relative to the controls) [1]: 100%
Test B disease control rating (100 = 100% disease control, 0 = no disease control relative to the controls) (Puccinia recondita): 100%
Test C disease control rating (100 = 100% disease control, 0 = no disease control relative to the controls) (Septoria nodorum): 100%

CCCCCCCCOc1cc(C)c(N=CN(C)C)cc1C [Compound 22]
Test A disease control rating (100 = 100% disease control, 0 = no disease control relative to the controls) [1]: 98%
Test B disease control rating (100 = 100% disease control, 0 = no disease control relative to the controls) (Puccinia recondita): 100%
Test C disease control rating (100 = 100% disease control, 0 = no disease control relative to the controls) (Septoria nodorum): 88%

Cc1cc(OCCCCC(C)(C)C#N)c(C)cc1N=CN(C)C [Compound 47]
Test A disease control rating (100 = 100% disease control, 0 = no disease control relative to the controls) [1]: 29%
Test B disease control rating (100 = 100% disease control, 0 = no disease control relative to the controls) (Puccinia recondita): 99%
Test C disease control rating (100 = 100% disease control, 0 = no disease control relative to the controls) (Septoria nodorum): 80%

CCCN(C)C(=S)Nc1cc(C)c(OCCC[Si](C)(C)CC)cc1C [compound 78]
Test A disease control rating (100 = 100% disease control, 0 = no disease control relative to the controls) [1]: 0%
Test B disease control rating (100 = 100% disease control, 0 = no disease control relative to the controls) (Puccinia recondita): 98%
Test C disease control rating (100 = 100% disease control, 0 = no disease control relative to the controls) (Septoria nodorum): 100%

CC(C)=CCC[C@@H](C)CCOc1cc(C)c(N=CN(C)C)cc1C [Compound 15]
Test A disease control rating (100 = 100% disease control, 0 = no disease control relative to the controls) [1]: 94%
Test B disease control rating (100 = 100% disease control, 0 = no disease control relative to the controls) (Puccinia recondita): 100%
Test C disease control rating (100 = 100% disease control, 0 = no disease control relative to the controls) (Septoria nodorum): 0%

CCN(C)C(=S)Nc1cc(C)c(OCCC[Si](C)(CC)CC)cc1C [compound 79]
Test A disease control rating (100 = 100% disease control, 0 = no disease control relative to the controls) [1]: 0%
Test B disease control rating (100 = 100% disease control, 0 = no disease control relative to the controls) (Puccinia recondita): 99%
Test C disease control rating (100 = 100% disease control, 0 = no disease control relative to the controls) (Septoria nodorum): 100%

CCCCN(C)C(=S)Nc1cc(C(C)C)c(OCCC[Si](C)(C)C)cc1C [compound 91]
Test A disease control rating (100 = 100% disease control, 0 = no disease control relative to the controls) [1]: 0%
Test B disease control rating (100 = 100% disease control, 0 = no disease control relative to the controls) (Puccinia recondita): 26%
Test C disease control rating (100 = 100% disease control, 0 = no disease control relative to the controls) (Septoria nodorum): 0%

Cc1cc(OCCC[Si](C)(C)C)c(C(C)C)cc1N=CN(C)C(C)C [compound 74]
Test A disease control rating (100 = 100% disease control, 0 = no disease control relative to the controls) [1]: 100%
Test B disease control rating (100 = 100% disease control, 0 = no disease control relative to the controls) (Puccinia recondita): 100%
Test C disease control rating (100 = 100% disease control, 0 = no disease control relative to the controls) (Septoria nodorum): 100%

C=CCCCCOc1cc(C)c(N=CN(C)C)cc1C [Compound 5]
Test A disease control rating (100 = 100% disease control, 0 = no disease control relative to the controls) [1]: 0%
Test B disease control rating (100 = 100% disease control, 0 = no disease control relative to the controls) (Puccinia recondita): 100%
Test C disease control rating (100 = 100% disease control, 0 = no disease control relative to the controls) (Septoria nodorum): 89%

C=CCN(C)C=Nc1cc(Cl)c(OCCC[Si](C)(C)C)cc1C [compound 56]
Test A disease control rating (100 = 100% disease control, 0 = no disease control relative to the controls) [1]: 100%
Test B disease control rating (100 = 100% disease control, 0 = no disease control relative to the controls) (Puccinia recondita): 100%
Test C disease control rating (100 = 100% disease control, 0 = no disease control relative to the controls) (Septoria nodorum): 100%

CC[Si](C)(C)CCCOc1cc(C)c(N=CN(C)C)cc1C [Compound 51]
Test A disease control rating (100 = 100% disease control, 0 = no disease control relative to the controls) [1]: 96%
Test B disease control rating (100 = 100% disease control, 0 = no disease control relative to the controls) (Puccinia recondita): 100%
Test C disease control rating (100 = 100% disease control, 0 = no disease control relative to the controls) (Septoria nodorum): 100%

CCN(C)C(=S)Nc1cc(Cl)c(OCCCC(C)C)cc1C [compound 114]
Test A disease control rating (100 = 100% disease control, 0 = no disease control relative to the controls) [1]: 99%
Test B disease control rating (100 = 100% disease control, 0 = no disease control relative to the controls) (Puccinia recondita): 100%
Test C disease control rating (100 = 100% disease control, 0 = no disease control relative to the controls) (Septoria nodorum): 100%

Cc1cc(OCCC[Si](C)(C)C)c(F)cc1N=CN(C)C(C)C [compound 63]
Test A disease control rating (100 = 100% disease control, 0 = no disease control relative to the controls) [1]: 100%
Test B disease control rating (100 = 100% disease control, 0 = no disease control relative to the controls) (Puccinia recondita): 100%
Test C disease control rating (100 = 100% disease control, 0 = no disease control relative to the controls) (Septoria nodorum): 100%

Cc1cc(OCCC[Si](C)(C)C)c(Cl)cc1N=CN1CCCC1 [Compound 95]
Test A disease control rating (100 = 100% disease control, 0 = no disease control relative to the controls) [1]: 100%
Test B disease control rating (100 = 100% disease control, 0 = no disease control relative to the controls) (Puccinia recondita): 100%
Test C disease control rating (100 = 100% disease control, 0 = no disease control relative to the controls) (Septoria nodorum): 100%

CCN(C)C=Nc1cc(C(C)C)c(OCCC[Si](C)(C)C)cc1C [compound 76]
Test A disease control rating (100 = 100% disease control, 0 = no disease control relative to the controls) [1]: 100%
Test B disease control rating (100 = 100% disease control, 0 = no disease control relative to the controls) (Puccinia recondita): 100%
Test C disease control rating (100 = 100% disease control, 0 = no disease control relative to the controls) (Septoria nodorum): 100%

CCN(CC)C(=S)Nc1cc(Cl)c(OCCCC(C)(C)C)cc1Cl [compound 188]
Test A disease control rating (100 = 100% disease control, 0 = no disease control relative to the controls) [1]: 100%
Test B disease control rating (100 = 100% disease control, 0 = no disease control relative to the controls) (Puccinia recondita): 79%
Test C disease control rating (100 = 100% disease control, 0 = no disease control relative to the controls) (Septoria nodorum): 90%

Cc1cc(OCCCC(C)(C)C)c(Cl)cc1N=CN(C)C [compound 176]
Test A disease control rating (100 = 100% disease control, 0 = no disease control relative to the controls) [1]: 43%
Test B disease control rating (100 = 100% disease control, 0 = no disease control relative to the controls) (Puccinia recondita): 99%
Test C disease control rating (100 = 100% disease control, 0 = no disease control relative to the controls) (Septoria nodorum): 100%

COC(=O)C(=Nc1cc(Cl)c(OCCC[Si](C)(C)C)cc1C)N(C)C [compound 130]
Test A disease control rating (100 = 100% disease control, 0 = no disease control relative to the controls) [1]: 100%
Test B disease control rating (100 = 100% disease control, 0 = no disease control relative to the controls) (Puccinia recondita): 97%
Test C disease control rating (100 = 100% disease control, 0 = no disease control relative to the controls) (Septoria nodorum): 0%

Cc1cc(OCCCC(C)C(C)C)c(C)cc1N=CN(C)C (stereo not drawn) [Compound 49]
Test A disease control rating (100 = 100% disease control, 0 = no disease control relative to the controls) [1]: 99%
Test B disease control rating (100 = 100% disease control, 0 = no disease control relative to the controls) (Puccinia recondita): 99%
Test C disease control rating (100 = 100% disease control, 0 = no disease control relative to the controls) (Septoria nodorum): 83%

Cc1cc(OCCCC(C)C)c(C)cc1N=CN(C)C [compound 132]
Test A disease control rating (100 = 100% disease control, 0 = no disease control relative to the controls) [1]: 98%
Test B disease control rating (100 = 100% disease control, 0 = no disease control relative to the controls) (Puccinia recondita): 100%
Test C disease control rating (100 = 100% disease control, 0 = no disease control relative to the controls) (Septoria nodorum): 97%

Cc1cc(OCCC(C)C)c(C)cc1N=CN(C)C [Compound 8]
Test A disease control rating (100 = 100% disease control, 0 = no disease control relative to the controls) [1]: 97%
Test B disease control rating (100 = 100% disease control, 0 = no disease control relative to the controls) (Puccinia recondita): 100%
Test C disease control rating (100 = 100% disease control, 0 = no disease control relative to the controls) (Septoria nodorum): 98%

C=CCCCOc1cc(C)c(N=CN(C)C)cc1C [Compound 6]
Test A disease control rating (100 = 100% disease control, 0 = no disease control relative to the controls) [1]: 0%
Test B disease control rating (100 = 100% disease control, 0 = no disease control relative to the controls) (Puccinia recondita): 100%
Test C disease control rating (100 = 100% disease control, 0 = no disease control relative to the controls) (Septoria nodorum): 60%

CN(C)C(=S)Nc1cc(Cl)c(OCCCC(C)(C)C)cc1Cl [compound 186]
Test A disease control rating (100 = 100% disease control, 0 = no disease control relative to the controls) [1]: 94%
Test B disease control rating (100 = 100% disease control, 0 = no disease control relative to the controls) (Puccinia recondita): 9%
Test C disease control rating (100 = 100% disease control, 0 = no disease control relative to the controls) (Septoria nodorum): 0%

Cc1cc(OCCCCCl)c(C)cc1N=CN(C)C [Compound 16]
Test A disease control rating (100 = 100% disease control, 0 = no disease control relative to the controls) [1]: 88%
Test B disease control rating (100 = 100% disease control, 0 = no disease control relative to the controls) (Puccinia recondita): 100%
Test C disease control rating (100 = 100% disease control, 0 = no disease control relative to the controls) (Septoria nodorum): 97%

Cc1cc(OCCC[Si](C)(C)C)c(Cl)cc1N=CN(C)C1CC1 [compound 61]
Test A disease control rating (100 = 100% disease control, 0 = no disease control relative to the controls) [1]: 100%
Test B disease control rating (100 = 100% disease control, 0 = no disease control relative to the controls) (Puccinia recondita): 100%
Test C disease control rating (100 = 100% disease control, 0 = no disease control relative to the controls) (Septoria nodorum): 100%
